Test results taken from patent EP4194453A1, “PYRAZINE COMPOUNDS FOR THE CONTROL OF INVERTEBRATE PESTS” (BASF SE, priority 2021, dated 2023).

How the values were obtained:
Assay type in all cases: in vivo
[1] = tested on: Diamond back moth (Plutella xylostella); test: Diamond back moth leaf-dip test on cabbage leaves; settings: 3rd instar larvae, 72 hours after treatment, in comparison with untreated controls
Protocol: The active compound was dissolved at the desired concentration in a mixture of 1:1 (vol:vol) distilled water: acetone. Surfactant (Kinetic HV) was added at a rate of 0.01% (vol/vol). The test solution was prepared on the day of use.
Leaves of cabbage were dipped in test solution and air-dried. Treated leaves were placed in petri dishes lined with moist filter paper and inoculated with ten 3rd instar larvae. Mortality was recorded 72 hours after treatment. Feeding damages were also recorded using a scale of 0-100%.

[2] = tested on: Green Peach Aphid (Myzus persicae); test: Green peach aphid systemic test, artificial diet in microtiter plates; settings: 72 h, adult aphids, 3 days, in comparison with untreated controls
From the text: For evaluating control of green peach aphid (Myzus persicae) through systemic means the test unit consisted of 96-well-microtiter plates containing liquid artificial diet under an artificial mem brane.
The compounds were formulated using a solution containing 75% v/v water and 25% v/v DMSO. Different concentrations of formulated compounds were pipetted into the aphid diet, using a custom built pipetter, at two replications.
After application, 5-8 adult aphids were placed on the artificial membrane inside the microtiter plate wells. The aphids were then allowed to suck on the treated aphid diet and incubated at about 23 ± 1°C and about 50 ± 5 % relative humidity for 3 days. Aphid mortality and fecundity was then visually assessed.

[3] = tested on: Tobacco budworm (Heliothis virescens); test: Tobacco budworm insect diet test in microtiter plates; settings: 120 h, egg and larval mortality, 5 days, in comparison with untreated controls
Protocol: For evaluating control of tobacco budworm (Heliothis virescens) the test unit consisted of 96-well-microtiter plates containing an insect diet and 15-25 H. virescens eggs.
The compounds were formulated using a solution containing 75% v/v water and 25% v/v DMSO. Different concentrations of formulated compounds were sprayed onto the insect diet at 10 µl using a custom-built micro atomizer, at two replications.
After application, microtiter plates were incubated at about 28 ± 1°C and about 80 ± 5 % relative humidity for 5 days. Egg and larval mortality was then visually assessed.

[4] = tested on: Boll weevil (Anthonomus grandis); test: Boll weevil insect diet test in microtiter plates; settings: 120 h, egg and larval mortality, 5 days, in comparison with untreated controls
Protocol: For evaluating control of boll weevil (Anthonomus grandis) the test unit consisted of 96-well-microtiter plates containing an insect diet and 5-10 A. grandis eggs.
The compounds were formulated using a solution containing 75% v/v water and 25% v/v DMSO. Different concentrations of formulated compounds were sprayed onto the insect diet at 5µl, using a custom-built micro atomizer, at two replications.
After application, microtiter plates were incubated at about 25 ± 1°C and about 75 ± 5 % relative humidity for 5 days. Egg and larval mortality was then visually assessed.

[5] = tested on: Southern armyworm (Spodoptera eridania), 2nd instar larvae; test: Southern armyworm foliar spray test on lima bean plants; settings: 96 h, 4 days after treatment, in comparison with untreated controls
Protocol: The active compounds were formulated by a Tecan liquid handler in 100% cyclohexanone as a 10,000 ppm solution supplied in tubes. The 10,000 ppm solution was serially diluted in 100% cyclohexanone to make interim solutions. These served as stock solutions for which final dilutions were made by the Tecan in 50% acetone:50% water (v/v) into 10 or 20ml glass vials. A nonionic surfactant (Kinetic®) was included in the solution at a volume of 0.01% (v/v). The vials were then inserted into an automated electrostatic sprayer equipped with an atomizing nozzle for application to plants/insects. Lima bean plants (variety Sieva) were grown 2 plants to a pot and selected for treatment at the 1st true leaf stage. Test solutions were sprayed onto the foliage by an auto-mated electrostatic plant sprayer equipped with an atomizing spray nozzle. The plants were dried in the sprayer fume hood and then removed from the sprayer. Each pot was placed into perforated plastic bags with a zip closure. Ten to 11 armyworm larvae were placed into the bag and the bags zipped closed. Test plants were maintained in a growth room at about 25°C and about 20-40% relative humidity for 4 days, avoiding direct exposure to fluorescent light (14:10 light:dark photoperiod) to prevent trapping of heat inside the bags. Mortality and reduced feeding were assessed 4 days after treatment, compared to untreated control plants.

[6] = tested on: Orchid thrips (Dichromothrips corbetti); test: Orchid thrips floral-immersion test; settings: adult thrips, 72 hours after treatment, in comparison with untreated controls
Protocol: Dichromothrips corbetti adults used for bioassay were obtained from a colony maintained continuously under laboratory conditions. For testing purposes, the test compound is diluted in a 1:1 mixture of acetone:water (vol:vol), plus Kinetic HV at a rate of 0.01% v/v.
Thrips potency of each compound was evaluated by using a floral-immersion technique. All petals of individual, intact orchid flowers were dipped into treatment solution and allowed to dry in Petri dishes. Treated petals were placed into individual re-sealable plastic along with about 20 adult thrips. All test arenas were held under continuous light and a temperature of about 28°C for duration of the assay. After 3 days, the numbers of live thrips were counted on each petal. The percent mortality was recorded 72 hours after treatment.

Cc1nc(-c2nccnc2C(C)NC(=O)c2cc(C(F)(F)F)cc(C(F)(F)F)c2)no1 (stereo not drawn) [I-1, N-[1-[3-(5-methyl-1,2,4-oxadiazol-3-yl)pyrazin-2-yl]ethyl]-3,5-bis(trifluoromethyl)benzamide]
≥ 75%: mortality at 300 ppm [1] | mortality at 2500 ppm [2] | mortality at 2500 ppm [3] | mortality at 2500 ppm [4] | mortality at 300 ppm [5]

CCN(C)C(=O)c1nc(-c2nccnc2C(C)NC(=O)c2cc(C(F)(F)F)cc(C(F)(F)F)c2)no1 (stereo not drawn) [I-2, 3-[3-[1-[[3,5-bis(trifluoromethyl)benzoyl]amino]ethyl]pyrazin-2-yl]-N-ethyl-N-methyl-1,2,4-oxadiazole-5-carboxamide]
≥ 75%: mortality at 300 ppm [1] | mortality at 2500 ppm [3] | mortality at 2500 ppm [4]

Cc1nc(-c2nccnc2C(C)N(CC2CC2)C(=O)c2cc(C(F)(F)F)cc(C(F)(F)F)c2)no1 (stereo not drawn) [I-3, N-(cyclopropylmethyl)-N-[1-[3-(5-methyl-1,2,4-oxadiazol-3-yl)pyrazin-2-yl]ethyl]-3,5-bis(trifluoromethyl)benzamide]
≥ 75%: mortality at 300 ppm [1] | mortality at 2500 ppm [2] | mortality at 2500 ppm [4] | mortality at 300 ppm [5] | mortality at 300 ppm [6]

CNC(=O)c1nc(-c2nccnc2C(C)N(CC2CC2)C(=O)c2cc(C(F)(F)F)cc(C(F)(F)F)c2)no1 (stereo not drawn) [I-4, 3-[3-[1-[[3,5-bis(trifluoromethyl)benzoyl]-(cyclopropylmethyl)amino]ethyl]pyrazin-2-yl]-N-methyl-1,2,4-oxadiazole-5-carboxamide]
≥ 75%: mortality at 2500 ppm [3] | mortality at 2500 ppm [4]
